# In PubChem BioAssay AID504539 (Broad Institute, 2011):
# Active and inactive are the calls of the source. The rule behind the calls is not given here.
# Test system: Cell-based prion protein 5' UTR reporter, plate reader
# Assay: prion protein 5' UTR mRNA inhibitors – cell-based, plate reader, cherry-picked samples, dose response (AID 504539)
# Conditions: not given
row,SMILES,AC50 [nM]
1,COC(=O)c1[nH]c2c(c1C)C(=O)CC(c1cccc(OC)c1)C2 (configuration not stated),715
2,Nc1ncnc2c(C3OC(CO)C(O)C3O)c[nH]c12 (configuration not stated),76
3,CCOC(=O)COc1cccc2c(=O)n(CC(=O)NCc3ccc(F)cc3)ccc12,1540
4,CCOc1ccc(/C=C2\SC(=S)N(CCC(=O)O)C2=O)cc1,277
5,CC(=O)OC(C)(C)/C=C/C(=O)[C@](C)(O)C1[C@H](O)C[C@@]2(C)C3CC=C4C(C[C@H](O)C(=O)C4(C)C)[C@]3(C)C(=O)C[C@]12C (some centres not stated),< 38
6,O=C(Nc1cc2ccccc2oc1=O)c1ccccc1,696
7,CCCOc1ccccc1C1CC(=O)Nc2cc3c(cc21)OCCO3 (configuration not stated),2900
8,COc1ccc(/C=N/NC(=O)c2[nH]c3ccc(Br)cc3c2-c2ccccc2)cc1,209
9,Cc1ccc(-c2nc(-c3ccccn3)no2)cc1,140
10,Cc1ccc(C(=O)CN2C(=O)c3ccccc3S2(=O)=O)cc1,823
11,COc1ccc(/C=C2\SC(=O)N(CCCC(=O)Nc3cc(Cl)ccc3C(=O)O)C2=O)cc1,242
12,CC(C)(O)/C=C/C(=O)[C@](C)(O)C1[C@H](O)C[C@@]2(C)C3CC=C4C(C[C@H](O)[C@@H](O)C4(C)C)[C@]3(C)C(=O)C[C@]12C (some centres not stated),900
13,CC(=O)O[C@H]1C[C@@H]2OC3C=C(C)CCC3(C)[C@@]1(C)[C@@]21CO1 (some centres not stated),2070
14,O=C(NCCc1ccccc1)c1ccc2c(c1)OCCCO2,187
15,Cc1ccc(C(=O)Nc2ncc(Cc3ccc(SC(F)F)cc3)s2)cc1,1560
16,Clc1ccccc1/C=C/c1nc(-c2ccccn2)no1,540
17,C/C(=N\NC(=O)c1ccccc1NC(=O)c1ccc(Cl)cc1)c1ccncc1,418
18,O=C(CN1C(=O)c2ccccc2S1(=O)=O)c1ccc2c(c1)OCCCO2,39
19,Cc1ccc(N2C(=O)c3cccc4c(N)ccc(c34)C2=O)c2cccnc12,134
20,N#CC1=C(N)OC2=C(CCc3ccccc32)C1c1ccccc1 (configuration not stated),945

row,SMILES,AC50 [nM]
1,CCOc1ccc(NC(=O)c2ccccn2)cc1,345
2,CC1CCC/C=C/C2CC(O)CC2C(O)/C=C/C(=O)O1 (configuration not stated),51
3,N#Cc1c(NC(=O)CSc2ncn[nH]2)sc2c1CCCC2,303
4,CC(C)CCCCCCCCCCCCC(=O)NCC(=O)NC1C(C)OC(Nc2ncnc3nc[nH]c23)C(O)C1O (configuration not stated),73
5,N/C(=N\OC(=O)c1ccccc1Cl)c1ccccn1,558
6,O=C(O)CSCC(=O)Nc1ccc(C2CCCCC2)cc1,1560
7,C/C=C/COC(=O)c1[nH]c2c(c1C)C(=O)CC(c1ccco1)C2 (configuration not stated),660
8,COCCn1c(C)cc(C(=O)CSc2nnnn2C2CCCC2)c1C,1140
9,COc1ccc(S(=O)(=O)N2c3cc(Cl)ccc3Oc3nc4ccccc4nc32)cc1,1350
10,COc1cccc2c1C(=O)c1c(O)c3c(c(O)c1C2=O)CC(O)(C(=O)CO)CC3OC1CC(N(C)C)C(O)C(C)O1 (configuration not stated),130
11,CCOc1ccc(NC(=O)Nc2cccc(C(=O)O)c2)cc1,136
12,Cc1ccc(C(=O)/C=C/Nc2ccccn2)cc1,233
13,COc1ccccc1N1CCN(C(=O)c2cc(=O)c3cc(C)cc(C)c3o2)CC1,248
14,COC1C(O)C(C)OC(OC2CCC3(C)C(CCC4C3C(O)CC3(C)C(C5=CC(=O)OC5)CCC43O)C2)C1O (configuration not stated),150
15,O=C1NC2C(O)C(O)C(O)C(O)C2c2cc3c(c(O)c21)OCO3 (configuration not stated),1480
16,CC(C)(C)C(=O)Nc1ccc(NC(=O)c2ccco2)nc1,244
17,CN(C)c1ccc(/C=C2\SC(=O)N(CCc3nnc(N)s3)C2=O)cc1,481
18,CC[C@@]1(O)C(=O)OCc2c1cc1n(c2=O)Cc2cc3c(NC(=O)CN)cccc3nc2-1,232
19,CC/C=C/CC(=O)N[C@@H](c1ccccc1)[C@@H](O)C(=O)O[C@H]1C[C@@]2(O)[C@@H](OC(=O)c3ccccc3)C3[C@](C)(C(=O)[C@H](OC(C)=O)C(=C1C)C2(C)C)[C@@H](O)C[C@H]1OC[C@@]31OC(C)=O (some centres not stated),368

# Test system: not listed separately
# Assay: as above
# Conditions: Cell-based prion protein 5' UTR reporter, plate reader; at 5 µM (top of the series)
row,SMILES,"activity change, negative = inhibition"
1,O=C(NNC(=O)c1cccs1)c1ccco1,6.33% (inactive)
2,O=C(NN1C(=O)C2C3C=CC(C4CC34)C2C1=O)c1ccc(Br)cc1 (configuration not stated),108% (inactive)
3,CCc1ccc(/C=C2\SC(=S)N(CCCC(=O)Nc3ccccn3)C2=O)cc1,-23.5% (inactive)
4,Cc1ccc(S(=O)(=O)Nc2nc3ccccc3s2)cc1[N+](=O)[O-],25.2% (inactive)
5,Cn1nnc2cc(C(=O)NC3CCCCC3)ccc21,46.3% (inactive)
6,CCOc1ccc(C2=Nn3c(nnc3-c3ccccc3OC)SC2)cc1,-38.1% (inactive)
7,COc1ccc(Nc2nc(-c3c(C)nc4ncccn34)cs2)cc1,-31.6% (inactive)
8,N#Cc1cn(C2OC(CO)C(O)C2O)c2ncnc(N)c12 (configuration not stated),-30.1% (inactive)
